Results from patent US9227923B2, “Pesticidal carboxamides” (Bayer Intellectual Property GmbH, priority 2009, dated 2016).

Test system: Tobacco Cutworm (Spodoptera litura) Larvae
Test: Test against tobacco cutworm (Spodoptera litura) larvae, leaf dip
Format: in vivo
Conditions: Spodoptera litura, foliar, 168 h; active compound concentration of 100 ppm; third instar larvae; after 7 days; read-out: insecticidal activity
Protocol: Solvent: 3 parts by weight of dimethylformamide
Emulsifier: 1 part by weight of polyoxyethylene alkyl phenyl ether
Leaves of sweet potato were immersed in the test solution at the appropriate concentration, and the leaves were dried in air. The leaves were then placed in a petri dish having a diameter of 9 cm, and ten Spodoptera litura at third instar larvae were released therein. The petri dishes were placed in a temperature-controlled chamber at 25° C. After 2 days and 4 days more sweet potato leaves were added. After 7 days, the number of dead larvae was counted to calculate the insecticidal activity. An insecticidal activity of 100% means that all larvae were killed, whereas an insecticidal activity of 0% means that no larva was killed.

| SMILES | pest or weed control at 100 ppm [%] |
| --- | --- |
| CCC(=O)NCc1ccc(C(=O)Nc2c(Cl)cc(C(F)(C(F)(F)F)C(F)(F)F)cc2Cl)cc1Cl [Compound 5-230, 3-chloro-N-[2,6-dichloro-4-(1,1,1,2,3,3,3-heptafluoropropan-2-yl)phenyl]-4-[(propionylamino)methyl]benzamide] | 100 |

Same assay, conditions: active compound concentration of 100 ppm; third instar larvae; after 7 days

| SMILES | insecticidal activity [%] |
| --- | --- |
| CCc1cc(C(F)(C(F)(F)F)C(F)(F)Br)cc(C)c1NC(=O)c1ccc(CNC(=O)C2CC2)c(Cl)c1 (racemic) [Compound 5-318] | 100 |
| CCC(=O)NCc1ccc(C(=O)Nc2c(C)cc(C(F)(C(F)(F)F)C(F)(F)F)cc2C)cc1 [Compound 5-3] | 100 |
| Cc1cc(C(F)(C(F)(F)F)C(F)(F)F)cc(C)c1NC(=O)c1ccc(CNC(=O)CC(F)(F)F)cc1 [Compound 5-7] | 100 |
| Cc1cc(C(F)(C(F)(F)F)C(F)(F)F)cc(C)c1NC(=O)c1ccc(CNC(=O)c2cccnc2F)cc1 [Compound 5-19] | 100 |
| Cc1cc(C(F)(C(F)(F)F)C(F)(F)F)cc(C)c1NC(=O)c1ccc(CNC(=O)CC2CC2)cc1F [Compound 5-24] | 100 |
| CCc1cc(C(F)(C(F)(F)F)C(F)(F)F)cc(C)c1NC(=O)c1ccc(CNC(=O)CC2CC2)cc1 [Compound 5-31] | 100 |
| CCc1cc(C(F)(C(F)(F)F)C(F)(F)F)cc(C)c1NC(=O)c1ccc(CNC(=O)c2ccccc2Cl)cc1 [Compound 5-37] | 100 |
| CCc1cc(C(F)(C(F)(F)F)C(F)(F)F)cc(C)c1NC(=O)c1ccc(CNC(=O)c2cccc(Cl)c2)cc1 [Compound 5-38] | 100 |
| CCc1cc(C(F)(C(F)(F)F)C(F)(F)F)cc(C)c1NC(=O)c1ccc(CNC(=O)c2ccc(Cl)cc2)cc1 [Compound 5-39] | 100 |
| CCC(=O)NCc1ccc(C(=O)Nc2c(C)cc(C(F)(C(F)(F)F)C(F)(F)F)cc2CC)c(F)c1F [Compound 5-52] | 100 |
| CCc1cc(C(F)(C(F)(F)F)C(F)(F)F)cc(C)c1NC(=O)c1ccc(CNC(=O)C2CC2)c(F)c1F [Compound 5-53] | 100 |
| CCc1cc(C(F)(C(F)(F)F)C(F)(F)F)cc(C)c1NC(=O)c1ccc(CNC(=O)CC2CC2)c(F)c1F [Compound 5-54] | 100 |
| CCc1cc(C(F)(C(F)(F)F)C(F)(F)F)cc(C)c1NC(=O)c1ccc(CNC(=O)CC(F)(F)F)c(F)c1F [Compound 5-55] | 100 |
| CCC(=O)NCc1ccc(C(=O)Nc2c(C)cc(C(F)(C(F)(F)F)C(F)(F)F)cc2CC)c(Cl)c1 [Compound 5-66] | 100 |
| CCc1cc(C(F)(C(F)(F)F)C(F)(F)F)cc(C)c1NC(=O)c1ccc(CNC(=O)CC2CC2)cc1Cl [Compound 5-67] | 100 |
| CCc1cc(C(F)(C(F)(F)F)C(F)(F)F)cc(C)c1NC(=O)c1ccc(CNC(=O)CC(F)(F)F)cc1Cl [Compound 5-68] | 100 |
| CCc1cc(C(F)(C(F)(F)F)C(F)(F)F)cc(C)c1NC(=O)c1ccc(CN)c(Cl)c1 [Compound 5-76] | 100 |
| CCc1cc(C(F)(C(F)(F)F)C(F)(F)F)cc(C)c1NC(=O)c1ccc(CN)c(Br)c1 [Compound 5-83] | 100 |
| CCc1cc(C(F)(C(F)(F)F)C(F)(F)F)cc(C)c1NC(=O)c1ccc(CNC(C)=O)c(C)c1 [Compound 5-99] | 100 |
| CCc1cc(C(F)(C(F)(F)F)C(F)(F)F)cc(C)c1NC(=O)c1ccc(CNC(=O)CC2CC2)c(C)c1 [Compound 5-101] | 100 |
| CCc1cc(C(F)(C(F)(F)F)C(F)(F)F)cc(C)c1NC(=O)c1ccc(CNC(C)=O)c(C(F)(F)F)c1 [Compound 5-106] | 100 |
| CCC(=O)NCc1ccc(C(=O)Nc2c(C)cc(C(F)(C(F)(F)F)C(F)(F)F)cc2CC)cc1C(F)(F)F [Compound 5-107] | 100 |

| SMILES | insecticidal activity [%] |
| --- | --- |
| CCc1cc(C(F)(C(F)(F)F)C(F)(F)F)cc(C)c1NC(=O)c1ccc(CNC(=O)C2CC2)c(C(F)(F)F)c1 [Compound 5-108] | 100 |
| CCC(=O)NCc1ccc(C(=O)Nc2c(C)cc(C(F)(C(F)(F)F)C(F)(F)F)cc2CC)cc1[N+](=O)[O-] [Compound 5-115] | 100 |
| CCc1cc(C(F)(C(F)(F)F)C(F)(F)F)cc(C)c1NC(=O)c1ccc(CNC(=O)C2CC2)c([N+](=O)[O-])c1 [Compound 5-116] | 100 |
| CCc1cc(C(F)(C(F)(F)F)C(F)(F)F)cc(C)c1NC(=O)c1ccc(CNC(=O)CC2CC2)c([N+](=O)[O-])c1 [Compound 5-117] | 100 |
| CCc1cc(C(F)(C(F)(F)F)C(F)(F)C(F)(F)F)cc(C)c1NC(=O)c1ccc(CN)c(Cl)c1 (centres unmarked) [Compound 5-149] | 100 |
| CCC(=O)NCc1ccc(C(=O)Nc2c(C)cc(C(F)(C(F)(F)F)C(F)(F)C(F)(F)F)cc2CC)cc1Br (centres unmarked) [Compound 5-158] | 100 |
| CCc1cc(C(F)(C(F)(F)F)C(F)(F)C(F)(F)F)cc(C)c1NC(=O)c1ccc(CNC(=O)CC2CC2)c(Br)c1 (centres unmarked) [Compound 5-160] | 100 |
| Cc1cc(C(F)(C(F)(F)F)C(F)(F)F)cc(C)c1NC(=O)c1ccc(CNC(=O)c2cccnc2Cl)cc1F [Compound 5-182] | 100 |
| CCc1cc(C(F)(C(F)(F)F)C(F)(F)F)cc(C)c1NC(=O)c1ccc(CN(C)C(=O)c2cccnc2Cl)cc1 [Compound 5-189] | 100 |
| CCc1cc(C(F)(C(F)(F)F)C(F)(F)F)cc(C)c1NC(=O)c1ccc(CNC(C)=O)c(I)c1 [Compound 5-190] | 100 |
| CCC(=O)NCc1ccc(C(=O)Nc2c(C)cc(C(F)(C(F)(F)F)C(F)(F)F)cc2CC)cc1I [Compound 5-191] | 100 |
| CCC(=O)NCc1ccc(C(=O)Nc2c(C)cc(C(F)(C(F)(F)F)C(F)(F)C(F)(F)F)cc2CC)cc1I (centres unmarked) [Compound 5-195] | 100 |
| CCc1cc(C(F)(C(F)(F)F)C(F)(F)C(F)(F)F)cc(C)c1NC(=O)c1ccc(CNC(=O)C2CC2)c(I)c1 (centres unmarked) [Compound 5-196] | 100 |
| CCc1cc(C(F)(C(F)(F)F)C(F)(F)C(F)(F)F)cc(C)c1NC(=O)c1ccc(CNC(=O)CC2CC2)c(I)c1 (centres unmarked) [Compound 5-197] | 100 |
| O=C(CC(F)(F)F)NCc1ccc(C(=O)Nc2c(Cl)cc(C(F)(C(F)(F)F)C(F)(F)F)cc2Cl)cc1Cl [Compound 5-232] | 100 |
| Cc1cc(C(F)(C(F)(F)F)C(F)(F)F)cc(OC(F)F)c1NC(=O)c1ccc(CN)c(Cl)c1 [Compound 5-293] | 100 |
| CC(=O)NCc1ccc(C(=O)Nc2c(Cl)cc(C(F)(C(F)(F)F)C(F)(F)C(F)(F)F)cc2Cl)cc1 (centres unmarked) [Compound 5-322] | 100 |
| O=C(CC1CC1)NCc1ccc(C(=O)Nc2c(Cl)cc(C(F)(C(F)(F)F)C(F)(F)C(F)(F)F)cc2Cl)cc1 (centres unmarked) [Compound 5-325] | 100 |
| CC(C)(C)OC(=O)NCc1ccc(C(=O)Nc2c(Cl)cc(C(F)(C(F)(F)F)C(F)(F)C(F)(F)F)cc2Cl)cc1Cl (centres unmarked) [Compound 5-329] | 100 |
| O=C(CC1CC1)NCc1ccc(C(=O)Nc2c(Cl)cc(C(F)(C(F)(F)F)C(F)(F)C(F)(F)F)cc2Cl)cc1Cl (centres unmarked) [Compound 5-330] | 100 |
| Cc1cc(C(F)(C(F)(F)F)C(F)(F)F)cc(Cl)c1NC(=O)c1ccc(CNC(=O)CC(F)(F)F)cc1 [Compound 5-335] | 100 |
